Experimental data reported in patent publication US20090203708A1, “NOVEL SUBSTITUTED-1-H-QUINAZOLINE-2,4-DIONE DERIVATIVES, PREPARATION METHOD THEREOF AND PHARMACEUTICAL COMPOSITION CONTAINING THE SAME” (Korea Research Institute of Chemical Technology, priority 2006, published 2009).

Legend:
[1] = target: human serotonin 5-HT6 receptor (Homo sapiens, UniProt P50406); assay: [3H]LSD binding assay for cloned 5-HT6 receptors
Chain of human serotonin 5-HT6 receptor (P50406 whole entry): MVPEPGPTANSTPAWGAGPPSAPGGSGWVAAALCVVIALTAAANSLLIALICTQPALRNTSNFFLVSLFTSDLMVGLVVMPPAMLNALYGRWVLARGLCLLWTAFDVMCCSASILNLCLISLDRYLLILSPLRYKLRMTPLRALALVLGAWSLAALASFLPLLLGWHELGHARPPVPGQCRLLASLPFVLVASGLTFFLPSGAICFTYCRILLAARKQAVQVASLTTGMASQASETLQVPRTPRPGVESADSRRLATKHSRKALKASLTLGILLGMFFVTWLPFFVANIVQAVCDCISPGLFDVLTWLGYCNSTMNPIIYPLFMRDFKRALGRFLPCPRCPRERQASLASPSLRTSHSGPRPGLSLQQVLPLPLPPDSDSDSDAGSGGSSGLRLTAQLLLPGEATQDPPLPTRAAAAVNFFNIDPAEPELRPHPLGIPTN

| melting point [°C] | IC50 [1] [nM] | SMILES |
| --- | --- | --- |
| 122 to 125 | 2.3 | COc1ccccc1Cn1c(=O)c2c(N3CCNCC3)cc(Cl)cc2n(Cc2ccccc2)c1=O [Example 63, 1-benzyl-7-chloro-3-(2-methoxy-benzyl)-5-piperazin-1-yl-1H-quinazoline-2,4-dione] |
| 56 to 62 | 10.5 | CC(C)Cc1cccc(CCCn2c(=O)c3c(N4CCN(C)CC4)cc(Cl)cc3n(Cc3ccccc3)c2=O)c1 [Example 45, 1-benzyl-7-chloro-3-[3-(3-isobutyl-phenyl)-propyl]-5-(4-methyl-piperazin-1-yl)-1H-quinazoline-2,4-dione] |
| 132 to 136 | > 1000 | CN1CCN(c2cc(Cl)cc3c2c(=O)n(Cc2ccccc2)c(=O)n3C)CC1 [Example 50, 3-benzyl-7-chloro-1-methyl-5-(4-methyl-piperazin-1-yl)-1H-quinazoline-2,4-dione] |
| 93 to 96 | 22.1 | CN1CCN(c2cc(Cl)cc3c2c(=O)n(Cc2ccc(N)cc2)c(=O)n3Cc2ccccc2)CC1 [Example 36, 3-(4-amino-benzyl)-1-benzyl-7-chloro-5-(4-methyl-piperazin-1-yl)-1H-quinazoline-2,4-dione] |
|  | 2.5 | CN1CCN(c2cc(Cl)cc3c2c(=O)n(Cc2ccccc2N)c(=O)n3Cc2ccccc2)CC1 [Example 34, 3-(2-amino-benzyl)-1-benzyl-7-chloro-5-(4-methyl-piperazin-1-yl)-1H-quinazoline-2,4-dione] |
| 81 to 89 | 10.2 | COc1ccc(Cn2c(=O)c3c(N4CCN(C)CC4)cc(Cl)cc3n(Cc3ccccc3)c2=O)cc1 [Example 27, 1-benzyl-7-chloro-3-(4-methoxy-benzyl)-5-(4-methyl-piperazin-1-yl)-1H-quinazoline-2,4-dione] |
|  | 2.8 | CCCCn1c(=O)c2c(N3CCN(C)CC3)cc(Cl)cc2n(Cc2ccccc2)c1=O [Example 4, 1-benzyl-3-butyl-7-chloro-5-(4-methyl-piperazin-1-yl)-1H-quinazoline-2,4-dione] |
| 171 to 175 | 2.6 | Cc1cccc(Cn2c(=O)c3c(N4CCN(C)CC4)cc(Cl)cc3n(Cc3ccccc3)c2=O)c1 [Example 23, 1-benzyl-7-chloro-3-(3-methyl-benzyl)-5-(4-methyl-piperazin-1-yl)-1H-quinazoline-2,4-dione] |
| 93 to 98 | 3.3 | CN1CCN(c2cc(Cl)cc3c2c(=O)n(Cc2ccc(Br)cc2)c(=O)n3Cc2ccccc2)CC1 [Example 16, 1-benzyl-3-(4-bromo-benzyl)-7-chloro-5-(4-methyl-piperazin-1-yl)-1H-quinazoline-2,4-dione] |
| 154 to 157 | 2.7 | CN1CCN(c2cc(Cl)cc3c2c(=O)n(Cc2cccc(Br)c2)c(=O)n3Cc2ccccc2)CC1 [Example 15, 1-benzyl-3-(3-bromo-benzyl)-7-chloro-5-(4-methyl-piperazin-1-yl)-1H-quinazoline-2,4-dione] |
|  | 169 | CCCn1c(=O)n(Cc2ccccc2)c(=O)c2c(N3CCN(C)CC3)cc(Cl)cc21 [Example 52, 3-benzyl-7-chloro-5-(4-methyl-piperazin-1-yl)-1-propyl-1H-quinazoline-2,4-dione] |
|  | 4.7 | CN1CCN(c2cc(Cl)cc3c2c(=O)n(Cc2ccc(I)cc2)c(=O)n3Cc2ccccc2)CC1 [Example 21, 1-benzyl-7-chloro-3-(4-iodo-benzyl)-5-(4-methyl-piperazin-1-yl)-1H-quinazoline-2,4-dione] |
|  | 30.2 | CCCCn1c(=O)n(Cc2ccccc2)c(=O)c2c(N3CCN(C)CC3)cc(Cl)cc21 [Example 53, 3-benzyl-1-butyl-7-chloro-5-(4-methyl-piperazin-1-yl)-1H-quinazoline-2,4-dione] |
|  | 3.6 | Nc1ccccc1Cn1c(=O)c2c(N3CCNCC3)cc(Cl)cc2n(Cc2ccccc2)c1=O [Example 67, 3-(2-amino-benzyl)-1-benzyl-7-chloro-5-piperazin-1-yl-1H-quinazoline-2,4-dione] |
